Data taken from patent US12084472B2 (Ardelyx, Inc., priority 2015, dated 2024).

molecular target: T1, human TGR5 (Homo sapiens, UniProt Q8TDU6); test: Cell-based TGR5 assay (cAMP generation, HTRF); settings: HEK293 cells stably transfected with human TGR5; cAMP by HTRF; 30 minutes at 37° C.; read-out: pEC50 Human TGR5 (converted)
T1 construct: expressed in transfected cells; host or cells: HEK293
T1 sequence (Q8TDU6 1-330): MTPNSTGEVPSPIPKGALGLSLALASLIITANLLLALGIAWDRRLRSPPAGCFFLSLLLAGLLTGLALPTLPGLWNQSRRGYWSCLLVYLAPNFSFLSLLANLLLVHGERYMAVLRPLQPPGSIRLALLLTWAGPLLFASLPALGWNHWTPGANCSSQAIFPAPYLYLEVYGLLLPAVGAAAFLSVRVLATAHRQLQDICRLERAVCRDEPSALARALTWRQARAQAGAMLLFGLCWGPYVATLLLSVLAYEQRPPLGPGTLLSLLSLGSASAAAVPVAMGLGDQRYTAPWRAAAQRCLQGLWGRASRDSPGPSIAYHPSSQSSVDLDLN
Outline: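 First, compounds in 3-fold serial dilution were placed in HBSS with 10 mM HEPES pH 7.4 and 0.5 mM IBMX. Next, human TGR5-expressing HEK293 cells were added and incubated 30 min at 37° C. Finally, cAMP was detected by HTRF and pEC50 derived by logistic fitting.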

SMILES	EC50 [nM]
O=C(CCCCc1cc(Cl)c(COC2(c3cnccc3-c3ccccc3OC3CC3)CC2)cc1Cl)N(CCCO)C[C@H](O)[C@@H](O)[C@H](O)[C@H](O)CO [Compound I-218, 5-[2,5-dichloro-4-({1-[4-(2-cyclopropoxyphenyl)pyridin-3-yl]cyclopropoxy}methyl)phenyl]-N-(3-hydroxypropyl)-N-[(2S,3R,4R,5R)-2,3,4,5,6-pentahydroxyhexyl]pentanamide]	< 100
CC(C)c1ccc(SCCCC(=O)N(C)C[C@H](O)[C@@H](O)[C@H](O)[C@H](O)CO)cc1COC1(c2cnccc2-c2ccccc2OC2CC2)CC1 [Compound I-620, 4-{[3-({1-[4-(2-cyclopropoxyphenyl)pyridin-3-yl]cyclopropoxy}methyl)-4-(propan-2-yl)phenyl]sulfanyl}-N-methyl-N-[(2S,3R,4R,5R)-2,3,4,5,6-pentahydroxyhexyl]butanamide]	1260 to 10000
CS(=O)(=O)c1ccc(Cl)cc1CNC1(c2cnccc2-c2ccccc2OC2CC2)CC1 [Compound I-43, N-[(5-chloro-2-methanesulfonylphenyl)methyl]-1-[4-(2-cyclopropoxyphenyl)pyridin-3-yl]cyclopropan-1-amine]	126 to 1000
Cc1cc(CNC2(c3cnccc3-c3ccccc3OC3CC3)CC2)c(C)cc1CCCCC(=O)N(C)C[C@H](O)[C@@H](O)[C@H](O)[C@H](O)CO [Compound I-149, 5-{4-[({1-[4-(2-cyclopropoxyphenyl)pyridin-3-yl]cyclopropyl}amino)methyl]-2,5-dimethylphenyl}-N-methyl-N-[(2S,3R,4R,5R)-2,3,4,5,6-pentahydroxyhexyl]pentanamide]	126 to 1000
Cc1cc(CNC2(c3cnccc3-c3ccccc3OC3CC3)CC2)c(C)cc1CCCCNC(=O)NC[C@H](O)[C@@H](O)[C@H](O)[C@H](O)CO (stereo in doubt) [Compound I-147, 1-(4-{4-[({1-[4-(2-cyclopropoxyphenyl)pyridin-3-yl]cyclopropyl}amino)methyl]-2,5-dimethylphenyl}butyl)-3-[(2S,3R,4R,5R)-2,3,4,5,6-pentahydroxyhexyl]urea]	126 to 1000
O=C(NCCCCCSc1ccc(Cl)c(COC2(c3cnccc3-c3ccccc3OC3CC3)CC2)c1)N[C@H]1CC[C@@H](NC(=O)NC[C@H](O)[C@@H](O)[C@H](O)[C@H](O)CO)CC1 [Compound I-634, 1-(5-{[4-chloro-3-({1-[4-(2-cyclopropoxyphenyl)pyridin-3-yl]cyclopropoxy}methyl)phenyl]sulfanyl}pentyl)-3-[(1s,4s)-4-({[(2S,3R,4R,5R)-2,3,4,5,6-pentahydroxyhexyl]carbamoyl}amino)cyclohexyl]urea]	< 100
Clc1ccc(Cl)c(CNC2(c3cnccc3-c3ccccc3)CC2)c1 [Compound I-14, N-[(2,5-dichlorophenyl)methyl]-1-(4-phenylpyridin-3-yl)cyclopropan-1-amine]	126 to 1000
Cc1ccc(SCCCCN(CCCCO)C(=O)[C@@H](O)[C@@H](O)[C@H](O)[C@@H](O)CO)cc1CNC1(c2cnccc2-c2ccccc2OC2CC2)CC1 [Compound I-550, (2S,3S,4R,5S)-N-[4-({3-[({1-[4-(2-cyclopropoxyphenyl)pyridin-3-yl]cyclopropyl}amino)methyl]-4-methylphenyl}sulfanyl)butyl]-2,3,4,5,6-pentahydroxy-N-(4-hydroxybutyl)hexanamide]	126 to 1000
CC(CCCC(=O)N1CCN(CCNC(=O)NC[C@H](O)[C@@H](O)[C@H](O)[C@H](O)CO)CC1)c1ccc(Cl)c(CNC2(c3cnccc3-c3ccccc3OC3CC3)CC2)c1 (stereo partly drawn) [Compound I-323, 1-{2-[4-(5-{4-chloro-3-[({1-[4-(2-cyclopropoxyphenyl)pyridin-3-yl]cyclopropyl}amino)methyl]phenyl}hexanoyl)piperazin-1-yl]ethyl}-3-[(2S,3R,4R,5R)-2,3,4,5,6-pentahydroxyhexyl]urea]	< 100
